{"source": "patent US20140161915A1", "about": "“Solubilization of cucurminoid compounds and products thereof” (priority 2011, published 2014)", "key": {"anti-spectrin / spectrin": {"test_system": "anti-spectrin / spectrin", "assay": "Inhibition of binding of commercial polyclonal anti-spectrin to spectrin", "settings": "heat-solubilized"}, "[1]": {"test_system": "4-hydroxy-2-nonenal-mediated oxidative modification of a protein substrate", "assay": "Inhibition of 4-hydroxy-2-nonenal-mediated oxidative modification of a protein substrate", "assay_type": "biochemical", "settings": "heat-solubilized"}, "[2]": {"assay": "Ingestion of aqueous solubilized curcumin by four adult males, reported effects", "assay_type": "in vivo, human", "procedure": "The study conditions were as follows.\nThis subject's study was conducted in a completely blind manner: the subject was told nothing about the known or suspected properties but was merely asked to report their observations."}, "[3]": {"assay": "Curcumin dissolution in water (saturated), centrifuged supernatant read by UV-Vis at 405 nm", "assay_type": "physicochemical", "procedure": "(§1) The autoclave cycle was 70 minutes, of which ˜40 minutes represent actual time under pressure.\nThat mixture was then combined with 47.5 mL of deionized water to make up a 50 mL solution."}, "[4]": {"test_system": "anti-Ro60 autoantibodies / Ro60 autoantigen", "assay": "Inhibition of binding of anti-Ro60 autoantibodies to Ro60 autoantigen", "set-up": "species or system human", "settings": "heat-solubilized"}, "[5]": {"settings": "cited from earlier work"}, "DNA": {"test_system": "DNA", "assay": "Binding or intercalation to DNA", "settings": "heat solubilized"}, "[6]": {"assay": "Stability of dissolved curcumin: hydrolysis at alkaline pH and precipitation over time", "assay_type": "physicochemical", "settings": "pressure-dissolved (15 psi, 121° C.) solution", "procedure": "For solutions made at room temperature it is difficult to obtain a clear (i.e., solid-free) supernatant even from careful centrifuging. The samples are far more soluble in alkaline water (e.g., pH 7.6), but when placed in phosphate buffered saline (PBS) and serum-free media at modest alkaline pH (pH 7.2, at 37° C.) the curcuminoids are hydrolyzed substantially completely within 30 minutes.\nEven so, UV-Visible spectra and mass specta (from matrix assisted laser desorption […] time of flight mass spectrometry, MALDI-TOF-MS) confirmed that the dissolved curcumin was substantially unchanged by the heat treatment. Heat treatment also appears to increase the solubilization of BDMC but (curiously) not DMC.\nas §1"}, "[7]": {"assay": "Curcumin dissolution in water (saturated), centrifuged supernatant read by UV-Vis at 405 nm", "assay_type": "physicochemical", "remark": "listed apart in the source"}, "[8]": {"settings": "0.1% Tween-20, 15 psi, 121° C., deionized water"}, "[9]": {"settings": "0.5% Tween-20, 15 psi, 121° C., deionized water"}, "[10]": {"settings": "2% Tween-20, 15 psi, 121° C., deionized water"}, "[11]": {"settings": "15 psi, 121° C., deionized water, 5 mg/mL present"}, "[12]": {"settings": "0.1% Tween-20, room pressure, 100° C. deionized water"}, "[13]": {"settings": "2% Tween-20, room pressure, 100° C. deionized water"}}, "data": [{"smiles": "COc1cc(/C=C/C(=O)CC(=O)/C=C/c2ccc(O)c(OC)c2)ccc1O", "note": "[curcumin, 1,7-bis[4-hydroxy-3-methoxyphenyl]-1,6-heptadiene-3,5-dione]", "values": [{"measurement": "Inhibition of binding of commercial polyclonal anti-spectrin to spectrin", "setting": "anti-spectrin / spectrin", "result": 50, "unit": "%"}, {"measurement": "Inhibition of 4-hydroxy-2-nonenal-mediated oxidative modification of a protein substrate", "setting": "[1]", "result": 80, "unit": "%"}, {"measurement": "Duration of relief from metatarsal arthritic inflammation", "setting": "[2]; Subject #3, about 100 kg, 20 mL of 350 micromolar sample (autoclave, 5% ethanol), ingested", "result": "about 48 hours"}, {"measurement": "Effect on mood", "setting": "[2]; four adult males, 5-20 mL of 150-350 micromolar autoclaved aqueous curcumin, ingested", "result": "mood elevating effects"}, {"measurement": "Onset of mood elevating effects", "setting": "[2]; four adult males, ingested autoclaved aqueous curcumin", "result": "almost instantaneously"}, {"measurement": "Dissolution (Approximate) Mass/mL", "setting": "[3]; [8]", "result": 44.84, "unit": "µg/mL"}, {"measurement": "Dissolution (Approximate) Molarity", "setting": "[3]; [8]", "result": 0.12, "unit": "mM"}, {"measurement": "Dissolution (Approximate) Molarity", "setting": "[3]; [9]", "result": 0.75, "unit": "mM"}, {"measurement": "Dissolution (Approximate) Mass/mL", "setting": "[3]; [10]", "result": 1556, "unit": "µg/mL"}, {"measurement": "Dissolution (Approximate) Molarity", "setting": "[3]; [10]", "result": 4.2, "unit": "mM"}, {"measurement": "Increase over curcumin dissolved at ambient temperature", "setting": "[3]; 15 psi, 121° C., 5% ethanol in deionized water", "result": "~100", "unit": "fold"}, {"measurement": "Dissolved share of the original amount", "setting": "[3]; 15 psi, 121° C., 5% ethanol in deionized water, made up to 50 mL", "result": "about 12.9%"}, {"measurement": "Dissolved share of the curcumin initially present", "setting": "[3]; [11]", "result": 5, "unit": "%"}, {"measurement": "Solubilized share of starting curcumin", "setting": "[3]; autoclaved in water with 2% of a poly(alkyl ether), 50 mL starting solution", "result": 31, "unit": "%"}, {"measurement": "Inhibition of binding of anti-Ro60 autoantibodies to Ro60 autoantigen", "setting": "[4]; Sjögren's syndrome sera", "result": "up to 43%"}, {"measurement": "Inhibition of binding of anti-Ro60 autoantibodies to Ro60 autoantigen", "setting": "[4]; systemic lupus erythematosus (SLE) sera", "result": "up to 52%"}, {"measurement": "Increase in solubility by heat treatment over unheated", "setting": "[5]; Kurien et al. (2007): boiling deionized water", "result": 12, "unit": "fold"}, {"measurement": "Solubility of curcumin itself", "setting": "[5]; deionized water at room temperature, dissolved material is DMC and BDMC", "result": "insoluble"}, {"measurement": "Intercalation into or binding to DNA", "setting": "DNA", "result": "does not intercalate into or otherwise bind to DNA"}, {"measurement": "Precipitation or turbidity of the solution over time", "setting": "[6]", "result": "did not precipitate out or cause the solution to become cloudy or turbid"}, {"measurement": "Reduction in pristine curcumin", "setting": "[6]; alkaline pH for 72 hours", "result": 32, "unit": "%"}, {"measurement": "Dissolution (Approximate) Mass/mL", "setting": "[7]; [12]", "result": 22.5, "unit": "µg/mL"}, {"measurement": "Dissolution (Approximate) Molarity", "setting": "[7]; [12]", "result": 0.061, "unit": "mM"}, {"measurement": "Dissolution (Approximate) Mass/mL", "setting": "[7]; [9]", "result": 278.1, "unit": "µg/mL"}, {"measurement": "Dissolution (Approximate) Mass/mL", "setting": "[7]; 0.5% Tween-20, room pressure, 100° C. deionized water", "result": 77.44, "unit": "µg/mL"}, {"measurement": "Dissolution (Approximate) Mass/mL", "setting": "[7]; [13]", "result": 443.52, "unit": "µg/mL"}, {"measurement": "Dissolution (Approximate) Molarity", "setting": "[7]; [13]", "result": 1.2, "unit": "mM"}, {"measurement": "Dissolution (Approximate) Molarity", "setting": "[7]; [11]", "result": 0.68, "unit": "mM"}]}]}
